Reference: paper PMC12833730, “Discovery of a First‐in‐Class Covalent Allosteric SHP1 Inhibitor with Immunotherapeutic Activity” (Angewandte Chemie (International Ed. in English), 2025)
Where “and” joins values, the source holds several entries; their conditions need not be identical. Equal entries are not always repeated. Entries after “also recorded” stand apart in the source; their conditions may differ. Where two headings read alike, the source gives them in different places.

What was measured:
[1] = biological target: T1, PTPN22 (Homo sapiens, UniProt Q9Y2R2); assay: IC50 after preincubation, DiFMUP phosphatase assay; format: biochemical
T1 construct: LYP/PTPN22, residues 1-294; made in house; host or cells: E. coli BL21(DE3)
T1 sequence (Q9Y2R2 1-294): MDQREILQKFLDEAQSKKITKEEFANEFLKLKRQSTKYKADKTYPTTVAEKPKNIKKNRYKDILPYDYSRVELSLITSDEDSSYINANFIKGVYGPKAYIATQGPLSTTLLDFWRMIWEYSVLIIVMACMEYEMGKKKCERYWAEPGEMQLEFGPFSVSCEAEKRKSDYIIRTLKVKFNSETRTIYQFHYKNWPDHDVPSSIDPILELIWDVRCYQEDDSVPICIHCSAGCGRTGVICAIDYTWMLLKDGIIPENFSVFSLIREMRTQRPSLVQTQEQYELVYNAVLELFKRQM
Method: (§1) To further confirm the time-dependent inhibition and determine the IC50 of acquired hits, repurchased compounds from Enamine were serially diluted in a 96-well plate, followed by the addition of proteins at 200 nM. After 10-minute and 60-minute preincubation, 2 µL of the mixture was transferred into 100 µM 6,8-Difluoro-4-Methylumbelliferyl Phosphate (DiFMUP, Invitrogen, cat# D6567) at a final volume of 200 µL. The reaction was allowed to proceed for 5 minutes and quenched by the addition of 40 µl of a 160 µM solution of bpV(Phen) (Sigma-Aldrich, cat# SML0889). The fluorescence signal was measured using a CLARIOstar Plus Microplate Spectrophotometer (BMG Labtech) using excitation and emission wavelengths of 340 nm and 450 nm, respectively. Data were fitted using Prism GraphPad 10.1.1.

[2] = biological target: T2, SHP2 (Homo sapiens, UniProt Q06124); assay: IC50 after preincubation, DiFMUP phosphatase assay; format: biochemical
T2 construct: SHP2, residues 224-528; made in house; host or cells: E. coli BL21(DE3)
T2 sequence (Q06124 224-528): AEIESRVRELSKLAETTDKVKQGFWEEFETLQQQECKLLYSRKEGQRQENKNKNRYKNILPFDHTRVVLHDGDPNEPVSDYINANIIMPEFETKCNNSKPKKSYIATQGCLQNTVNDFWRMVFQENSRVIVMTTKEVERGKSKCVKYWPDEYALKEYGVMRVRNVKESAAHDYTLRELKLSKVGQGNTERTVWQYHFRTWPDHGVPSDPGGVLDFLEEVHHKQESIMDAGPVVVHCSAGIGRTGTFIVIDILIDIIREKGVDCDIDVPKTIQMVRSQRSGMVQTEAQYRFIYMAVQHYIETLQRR
Method: as §1

[3] = biological target: T3, SHP1 (Homo sapiens, UniProt P29350); assay: Intact protein LC-MS covalent adduct formation; format: binding; details: 60 min, room temperature, pH 7.0; single adduct
T3 construct: SHP1, residues 245-543; made in house; host or cells: E. coli BL21(DE3)
Method: The moderate half‐life in the presence of excessive GSH implied the low intrinsic reactivity of Z57117023. e) SHP1 protein was incubated with or without Z57117023 in 3,3‐dimethylglutarate buffer (pH = 7.0) for 60 min at room temperature to form a covalent adduct.
Covalent inhibitors generally inactivate their targets through a two‐step process, starting with a reversible binding event (characterized by the dissociation constant K I) and followed by covalent bond formation (represented by the first‐order rate constant of inactivation k inact). Although IC50 values are often utilized to assess the potency of covalent inhibitors, the second‐order rate constant k inact/K I is preferred because it provides a measure of covalent inhibition in a time‐ and dose‐independent manner.^[ [60], [62], [67], [68] ^] […] A single SHP1‐Z57117023 adduct was observed when SHP1 was incubated with Z57117023, with a mass shift of 295.21 Da (calculated 295.54 Da) (Figure 1e), consistent with the loss of a chlorine atom from Z57117023.
The mixtures were centrifuged to remove the unfolded SHP1 proteins, and the supernatants were spiked with a control protein CDC14A, followed by loading into SDS‐PAGE gels to quantify the relative SHP1 level.

[4] = system: MC38 tumors; assay: MC38 tumors in nude mice; format: in vivo; details: 25 mg/kg
Source text: To further establish whether the inhibitory effects of M029 on tumor progression could be attributable to enhanced antitumor immune responses, we treated MC38 tumors in nude mice. […] To evaluate the importance of CD8^+ T and NK cells in M029‐induced antitumor activity, we induced CD8^+ T cell or NK cell depletion in the MC38 syngeneic model using anti‐CD8 or anti‐NK1.1 antibodies as described in Figure 6c. […] These findings are consistent with the known role of SHP1 in T cells and with our in vitro data that indicate M029 enhances T cell activation with no direct effect on tumor cells. […] These findings align with previous reports that activated CD8^+ T cells recruit NK cells to tumors through releasing cytokines and chemokines like IFN‐γ.^[ [92] ^] The observed changes in immune activity induced by M029, such as increased tumor infiltration of cytotoxic CD8^+ T cells, enhanced T cell cytotoxicity and effector function, as well as improved NK cell infiltration and activation, collectively contribute to the anticancer effects exerted by M029 treatment.
Figure 6 Cytotoxic T‐cell activity is necessary for M029 antitumor activity. […] C57BL/6 mice were injected with anti‐CD8 or anti‐NK1.1 antibodies every 3–4 days for 8 days after tumor inoculation. […]

[5] = system: MC38 colorectal tumors; assay: MC38 syngeneic tumor model; format: in vivo, C57BL/6 mice; details: IP 15 mg/kg as printed in Figure S5

T3 sequence (P29350 245-543): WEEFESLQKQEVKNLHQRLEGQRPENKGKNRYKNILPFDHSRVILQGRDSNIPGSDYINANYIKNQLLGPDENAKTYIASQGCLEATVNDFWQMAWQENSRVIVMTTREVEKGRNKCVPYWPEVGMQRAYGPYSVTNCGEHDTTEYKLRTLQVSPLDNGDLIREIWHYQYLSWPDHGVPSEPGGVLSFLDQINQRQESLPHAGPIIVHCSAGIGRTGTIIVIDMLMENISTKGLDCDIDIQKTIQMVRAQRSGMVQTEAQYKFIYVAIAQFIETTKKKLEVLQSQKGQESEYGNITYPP

## O=C(CCl)Nc1ccc(S(=O)(=O)Nc2nccs2)cc1 [Z57117023, 2-chloro-N-(4-(N-(thiazol-2-yl)sulfamoyl)phenyl)acetamide]
[1]; 10-min preincubation, read-out: PTPN22 IC50, 10 min
  IC50: > 200 µM
[1]; 60-min preincubation, read-out: PTPN22 IC50, 60 min
  IC50: > 200 µM
[2]; 10-min preincubation, read-out: SHP2 IC50, 10 min
  IC50: > 200 µM
[2]; 60-min preincubation, read-out: SHP2 IC50, 60 min
  IC50: > 200 µM
[3]
  mass shift of SHP1 covalent adduct: 295.21 Da

## N#Cc1ccsc1NS(=O)(=O)c1ccc(NC(=O)CCl)cc1 [M029, 2-Chloro-N-(4-(N-(3-cyanothiophen-2-yl)sulfamoyl)phenyl)acetamide]
[1]; 60-min preincubation, read-out: 60 min IC50, PTPN22
  IC50: 88.6 ± 20.1 µM
[2]; 60-min preincubation, read-out: 60 min IC50, SHP2
  IC50: 58.2 ± 4.6 µM
[3]
  mass shift of SHP1 covalent adduct: 319.31 ± 1.14 Da and 319.31 Da
[4]
  MC38 tumor growth in nude mice: ineffective in inhibiting tumor growth; also recorded: no significant
[5]
  MC38 tumor progression, IP dosage: delayed MC38 tumor progression
